Experimental data reported in patent US20230049231A1 (priority 2019, published 2023).

Assays:
[1] = molecular target: T1, Kv1.3 potassium channel (Homo sapiens, UniProt P22001); test: Kv1.3 potassium channel blocker activity, automated whole-cell patch clamp (Patchliner); type: cell-based
T1 construct: expressed in transfected cells
In short: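 IC50 came from Hill-equation fits of peak and AUC currents from the final pulse at each concentration, normalized to compound-free control. Compounds applied consecutively at 30 nM to 100 μM (up to 0.3% DMSO) to Kv1.3-expressing CHO-K1 cells, P/4 leak subtraction. Pulses were +40 mV, 100 ms, from −90 mV holding, at 0.1 Hz on Patchliner.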

[2] = molecular target: T2, hERG channel (Homo sapiens, UniProt Q12809); test: hERG electrophysiology, automated whole-cell patch clamp (Patchliner); type: cell-based
T2 construct: expressed in transfected cells
In short: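 Currents were recorded at 0.3 Hz from −80 mV, stepping to +20 mV then −50 mV (300 ms each), in stably transfected CHO-K1 cells. Concentrations (30 nM–100 μM, up to 0.3% DMSO) were added sequentially without washout. IC50 came from Hill fits of control-normalized AUC/peak of each train's final pulse.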

[3] = Kv1.3 potassium channel, whole-cell patch clamp
[4] = hERG channel, whole-cell patch clamp
[5] = CHO-K1 cells stably expressing Kv1.3, 100 ms pulses from -90 mV to +40 mV, 0.1 Hz
[6] = CHO-K1 cells stably expressing hERG, +20 mV 300 ms, -50 mV 300 ms tail current, 0.3 Hz

T1 sequence (P22001 whole entry): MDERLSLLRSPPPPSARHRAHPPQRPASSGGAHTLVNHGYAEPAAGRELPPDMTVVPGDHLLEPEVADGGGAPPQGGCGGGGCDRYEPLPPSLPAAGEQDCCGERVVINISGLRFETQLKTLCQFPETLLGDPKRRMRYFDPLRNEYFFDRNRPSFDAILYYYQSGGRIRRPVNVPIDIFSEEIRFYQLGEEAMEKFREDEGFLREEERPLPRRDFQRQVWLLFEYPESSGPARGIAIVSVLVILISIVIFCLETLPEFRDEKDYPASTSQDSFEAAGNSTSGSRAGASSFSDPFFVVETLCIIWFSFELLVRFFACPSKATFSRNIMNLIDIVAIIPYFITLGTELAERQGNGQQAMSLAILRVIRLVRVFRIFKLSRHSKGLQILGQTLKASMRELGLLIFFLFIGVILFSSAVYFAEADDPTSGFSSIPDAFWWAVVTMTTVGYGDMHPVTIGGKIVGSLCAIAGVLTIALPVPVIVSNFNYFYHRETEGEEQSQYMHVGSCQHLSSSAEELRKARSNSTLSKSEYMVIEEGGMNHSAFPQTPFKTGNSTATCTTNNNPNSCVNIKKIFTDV
T2 sequence (Q12809 whole entry): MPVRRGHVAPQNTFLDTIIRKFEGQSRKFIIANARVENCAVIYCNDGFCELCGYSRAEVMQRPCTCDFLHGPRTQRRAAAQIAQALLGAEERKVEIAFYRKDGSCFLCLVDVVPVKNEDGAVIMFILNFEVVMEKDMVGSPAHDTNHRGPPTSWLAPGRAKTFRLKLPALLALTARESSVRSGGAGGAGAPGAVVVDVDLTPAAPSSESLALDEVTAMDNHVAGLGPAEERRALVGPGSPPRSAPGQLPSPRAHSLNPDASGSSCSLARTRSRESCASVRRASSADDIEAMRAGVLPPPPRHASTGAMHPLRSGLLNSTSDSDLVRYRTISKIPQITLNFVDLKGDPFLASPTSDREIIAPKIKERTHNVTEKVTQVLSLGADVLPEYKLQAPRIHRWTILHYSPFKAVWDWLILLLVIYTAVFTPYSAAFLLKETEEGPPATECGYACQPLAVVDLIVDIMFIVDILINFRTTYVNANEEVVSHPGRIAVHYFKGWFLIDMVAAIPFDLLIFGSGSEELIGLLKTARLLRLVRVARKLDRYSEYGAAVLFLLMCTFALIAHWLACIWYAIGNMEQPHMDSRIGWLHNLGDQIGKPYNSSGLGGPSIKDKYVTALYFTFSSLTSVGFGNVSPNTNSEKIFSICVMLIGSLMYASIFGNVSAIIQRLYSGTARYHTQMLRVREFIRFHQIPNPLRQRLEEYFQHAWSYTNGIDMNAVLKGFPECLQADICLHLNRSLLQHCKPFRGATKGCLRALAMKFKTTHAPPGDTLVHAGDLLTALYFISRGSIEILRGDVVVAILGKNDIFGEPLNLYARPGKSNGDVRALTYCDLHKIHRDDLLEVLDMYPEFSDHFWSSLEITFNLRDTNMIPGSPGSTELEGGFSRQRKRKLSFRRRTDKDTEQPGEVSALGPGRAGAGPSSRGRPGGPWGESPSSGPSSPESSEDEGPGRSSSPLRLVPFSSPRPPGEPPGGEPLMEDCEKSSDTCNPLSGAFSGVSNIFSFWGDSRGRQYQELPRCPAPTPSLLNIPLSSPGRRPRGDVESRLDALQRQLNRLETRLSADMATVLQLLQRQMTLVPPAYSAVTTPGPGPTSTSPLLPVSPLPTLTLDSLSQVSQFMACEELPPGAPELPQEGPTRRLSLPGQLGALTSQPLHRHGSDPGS

IC50 [1, 3] | IC50 [1, 5] | SMILES | IC50 [2, 4] | IC50 [2, 6]
< 1 µM | – | O=C1O[C@H](CN2CCNCC2)[C@@H]2C[C@H](c3c(O)ccc(Cl)c3Cl)CN12 (single isomer, unassigned) [Compound 280] | > 30 µM | –
< 1 µM | – | C[C@@]1(CO)OC(=O)N2C[C@@H](c3c(O)ccc(Cl)c3Cl)C[C@H]21 (single isomer, unassigned) [Compound 265] | > 30 µM | –
– | < 1 µM | CO[C@H](CO)C(=O)N1CC(=O)N2C[C@@H](c3c(O)ccc(Cl)c3Cl)C[C@H]2C1 [Compound 14, (7R,8aS)-7-(2,3-dichloro-6-hydroxyphenyl)-2-[(2R)-3-hydroxy-2-methoxypropanoyl]-hexahydropyrrolo[1,2-a]pyrazin-4-one] | – | > 30 µM
< 1 µM | – | O=C1C[C@@H](CN2CC(O)C2)C[C@@H]2C[C@H](c3c(O)ccc(Cl)c3Cl)CN12 (single isomer, unassigned) [Compound 242] | > 30 µM | –
– | < 1 µM | O=C([C@H](O)CO)N1CC(=O)N2C[C@@H](c3c(O)ccc(Cl)c3Cl)C[C@H]2C1 [Compound 42, (7R,8aS)-7-(2,3-dichloro-6-hydroxyphenyl)-2-((R)-2,3-dihydroxypropanoyl) hexahydropyrrolo[1,2-a]pyrazin-4(1H)-one] | – | > 30 µM
< 1 µM | – | NC(=O)[C@@H]1OC(=O)N2C[C@@H](c3c(O)ccc(Cl)c3Cl)C[C@@H]12 (single isomer, unassigned) [Compound 286] | > 30 µM | –
< 1 µM | – | O=C(C[C@H](O)C1CC1)N1CC(=O)N2C[C@@H](c3c(O)ccc(Cl)c3Cl)C[C@H]2C1 [Compound 71, (7R,8aS)-2-[(3S)-3-cyclopropyl-3-hydroxypropanoyl]-7-(2,3-dichloro-6-hydroxyphenyl)-hexahydropyrrolo [1,2-a]pyrazin-4-one] | < 30 µM | –
< 1 µM | – | NC(=O)CN1CC(=O)N2C[C@@H](c3c(O)ccc(Cl)c3Cl)C[C@H]2C1 [Compound 110, 2-[(7R,8aS)-7-(2,3-dichloro-6-hydroxyphenyl)-4-oxo-hexahydropyrrolo [1,2-a]pyrazin-2-yl]acetamide] | > 30 µM | –
< 1 µM | – | C[C@H](O)[C@H](CO)N1CC(=O)N2C[C@@H](c3c(O)ccc(Cl)c3Cl)C[C@H]2C1 (relative stereo) [Compound 165, (7R,8aS)-7-(2,3-dichloro-6-hydroxyphenyl)-2-[(2S,3S)-rel-1,3-dihydroxybutan-2-yl]-hexahydropyrrolo[1,2-a]pyrazin-4-one] | > 30 µM | –
< 1 µM | – | CNCC1OC[C@@H]2C[C@H](c3c(O)ccc(Cl)c3Cl)CCN2C1=O (stereo partly drawn) [Compound 182, (8R,9aS)-8-(2,3-dichloro-6-hydroxyphenyl)-3-[(methylamino)methyl]-hexahydro-1H-pyrido[2,1-c][1,4]oxazin-4-one] | < 30 µM | –
< 1 µM | – | O=C1CN(C[C@H]2CCN2)C[C@@H]2C[C@H](c3c(O)ccc(Cl)c3Cl)CN12 (single isomer, unassigned; isomer 2) [Compound 140] | > 30 µM | –
< 1 µM | – | O=C1CN(CC2CNC2)C[C@@H]2C[C@H](c3c(O)ccc(Cl)c3Cl)CN12 [Compound 128, (7R,8aS)-2-(azetidin-3-ylmethyl)-7-(2,3-dichloro-6-hydroxyphenyl)-hexahydropyrrolo [1,2-a]pyrazin-4-one] | > 30 µM | –
< 1 µM | – | C[C@H](O)CN1CC(=O)N2C[C@@H](c3c(O)ccc(Cl)c3Cl)C[C@H]2C1 (single isomer, unassigned; isomer 2) [Compound 151] | > 30 µM | –
< 1 µM | – | O=C1O[C@@H](CCO)[C@@H]2C[C@H](c3c(O)ccc(Cl)c3Cl)CN12 (single isomer, unassigned) [Compound 271] | < 30 µM | –
< 1 µM | – | NCC1OC[C@@H]2C[C@H](c3c(O)ccc(Cl)c3Cl)CCN2C1=O (stereo partly drawn) [Compound 180, (8R,9aS)-3-(aminomethyl)-8-(2,3-dichloro-6-hydroxyphenyl)-hexahydro-1H-pyrido[2,1-c][1,4]oxazin-4-one] | < 30 µM | –
< 1 µM | – | O=C(C1OC(=O)N2C[C@@H](c3c(O)ccc(Cl)c3Cl)C[C@@H]12)N1CCNCC1 (stereo partly drawn) [Compound 289, (6R,7aS)-6-(2,3-dichloro-6-hydroxyphenyl)-1-(piperazine-1-carbonyl)-tetrahydro-1H-pyrrolo[1,2-c][1,3]oxazol-3-one] | > 30 µM | –
< 1 µM | – | CC(=O)NC1CC(=O)N2C[C@@H](c3c(O)ccc(Cl)c3Cl)C[C@H]2C1 (stereo partly drawn) [Compound 206, N-[(2R,8aS)-2-(2,3-dichloro-6-hydroxyphenyl)-5-oxo-hexahydro-1H-indolizin-7-yl]acetamide] | > 30 µM | –

IC50 [1, 3] | IC50 [1, 5] | SMILES | IC50 [2, 4] | IC50 [2, 6]
– | < 1 µM | O=C1[C@@H](CO)OC[C@@H]2C[C@H](c3c(O)ccc(Cl)c3Cl)CCN12 (single isomer, unassigned) [Compound 52] | – | > 30 µM
< 1 µM | – | CNC(=O)C1CC(=O)N2C[C@@H](c3c(O)ccc(Cl)c3Cl)C[C@H]2C1 (stereo partly drawn) [Compound 232, (2R,8aS)-2-(2,3-dichloro-6-hydroxyphenyl)-N-methyl-5-oxo-hexahydro-1H-indolizine-7-carboxamide] | > 30 µM | –
– | < 1 µM | O=C(N1CC(O)C1)N1CC(=O)N2C[C@@H](c3c(O)ccc(Cl)c3Cl)C[C@H]2C1 [Compound 47, (7R,8aS)-7-(2,3-dichloro-6-hydroxypheny1)-2-(3-hydroxyazetidine-1-carbonyl)-hexahydropyrrolo[1,2-a]pyrazin-4-one] | – | > 30 µM
< 1 µM | – | CN(C)CC1CC(=O)N2C[C@@H](c3c(O)ccc(Cl)c3Cl)C[C@H]2C1 (stereo partly drawn) [Compound 240, (2R,8aR)-2-(2,3-dichloro-6-hydroxyphenyl)-7-[(dimethylamino)methyl]-hexahydro-1H-indolizin-5-one] | < 10 µM | –
– | < 1 µM | C[C@@H](CO)C(=O)N1CC(=O)N2CC[C@@H](c3c(O)ccc(Cl)c3Cl)C[C@H]2C1 [Compound 45, (8R,9aS)-8-(2,3-dichloro-6-hydroxyphenyl)-2-((S)-3-hydroxy-2-methylpropanoyl)octahydro-4H-pyrido[1,2-a]pyrazin-4-one] | – | > 30 µM
< 1 µM | – | O=C1O[C@@H](CO)[C@@H]2C[C@H](c3c(O)ccc(Cl)c3Cl)CN12 (single isomer, unassigned) [Compound 253] | > 30 µM | –
< 1 µM | – | C[C@H]1[C@@H]2C[C@H](c3c(O)ccc(Cl)c3Cl)CN2C(=O)CN1C(=O)CO (single isomer, unassigned; isomer 2) [Compound 88] | > 30 µM | –
< 1 µM | – | CC[C@H](O)CC(=O)N1CC(=O)N2C[C@@H](c3c(O)ccc(Cl)c3Cl)C[C@H]2C1 [Compound 70, (7R,8aS)-7-(2,3-dichloro-6-hydroxyphenyl)-2-[(3S)-3-hydroxypentanoyl]-hexahydropyrrolo [1,2-a]pyrazin-4-one] | < 30 µM | –
– | < 1 µM | COC[C@@H](O)C(=O)N1CC(=O)N2CC[C@@H](c3c(O)ccc(Cl)c3Cl)C[C@H]2C1 [Compound 4, (8R,9aS)-8-(2,3-dichloro-6-hydroxyphenyl)-2-[(2R)-2-hydroxy-3-methoxypropanoyl]-hexahydro-1H-pyrido[1,2-a]pyrazin-4-one] | – | > 30 µM
– | < 1 µM | O=C1CN(C(=O)[C@H]2C[C@H](O)C2)C[C@@H]2C[C@H](c3c(O)ccc(Cl)c3Cl)CN12 (single isomer, unassigned; isomer 1) [Compound 27] | – | > 30 µM
< 1 µM | – | COC(CO)CN1CC(=O)N2C[C@@H](c3c(O)ccc(Cl)c3Cl)C[C@H]2C1 (stereo partly drawn) [Compound 156, (7R,8aS)-7-(2,3-dichloro-6-hydroxyphenyl)-2-(3-hydroxy-2-methoxypropyl) hexahydropyrrolo[1,2-a]pyrazin-4-one] | > 30 µM | –
– | < 1 µM | CC[C@@H](O)C(=O)N1CC(=O)N2CC[C@@H](c3c(O)ccc(Cl)c3Cl)C[C@H]2C1 [Compound 21, (8R,9aS)-8-(2,3-dichloro-6-hydroxyphenyl)-2-[(2R)-2-hydroxybutanoyl]-hexahydro-1H-pyrido[1,2-a]pyrazin-4-one] | – | < 30 µM
< 1 µM | – | C[C@@H]1CN(C(=O)CO)C[C@@H]2C[C@H](c3c(O)ccc(Cl)c3Cl)CN2C1=O (single isomer, unassigned; isomer 1) [Compound 91] | > 30 µM | –
< 1 µM | – | O=C1O[C@H]([C@H](O)CO)[C@@H]2C[C@H](c3c(O)ccc(Cl)c3Cl)CN12 (single isomer, unassigned) [Compound 263] | > 30 µM | –
< 1 µM | – | NC(=O)N1CCC(=O)N2C[C@@H](c3c(O)ccc(Cl)c3Cl)C[C@H]2C1 [Compound 97, (8R,9aS)-8-(2,3-dichloro-6-hydroxyphenyl)-5-oxo-hexahydro-1H-pyrrolo [1,2-a][1,4]diazepine-2-carboxamide] | > 30 µM | –
< 1 µM | – | O=C1C[C@@H](N2CC(=O)N3C[C@@H](c4c(O)ccc(Cl)c4Cl)C[C@H]3C2)CN1 (single isomer, unassigned; isomer 1) [Compound 160] | > 30 µM | –
< 1 µM | – | O=C(CO)N1CC(N2CC(=O)N3C[C@@H](c4c(O)ccc(Cl)c4Cl)C[C@H]3C2)C1 [Compound 133, (7R,8aS)-7-(2,3-dichloro-6-hydroxyphenyl)-2-[1-(2-hydroxyacetyl)azetidin-3-yl]-hexahydropyrrolo [1,2-a]pyrazin-4-one] | > 30 µM | –
